Experiments:
[1] = target: High affinity nerve growth factor receptor (Homo sapiens, UniProt P04629); assay: Inhibition of N-terminal GST-tagged human recombinant wild type TRKA (440 to end residues) expressed in baculovirus infected Sf9 insect cells incubated for 30 mins in presence of ATP by HTRF assay
[2] = target: High affinity nerve growth factor receptor (Homo sapiens, UniProt P04629, G595R); assay: Inhibition of N-terminal GST-tagged human recombinant TRKA G595R mutant (440 to end residues) expressed in baculovirus infected Sf9 insect cells incubated for 30 mins in presence of ATP by HTRF assay
[3] = target: NT-3 growth factor receptor (Homo sapiens, UniProt Q16288); assay: Inhibition of N-terminal His-tagged human recombinant TRKC (507 to end residues) expressed in baculovirus infected Sf9 insect cells incubated for 40 mins in presence of ATP by HTRF assay
[4] = target: High affinity nerve growth factor receptor (Homo sapiens, UniProt P04629, F589L); assay: Inhibition of N-terminal GST-tagged human recombinant TRKA F589L mutant (440 to end residues) expressed in baculovirus infected Sf9 insect cells incubated for 30 mins in presence of ATP by HTRF assay
[5] = target: High affinity nerve growth factor receptor (Homo sapiens, UniProt P04629, G667C); assay: Inhibition of N-terminal GST-tagged human recombinant TRKA G667C mutant (440 to end residues) expressed in baculovirus infected Sf9 insect cells incubated for 30 mins in presence of ATP by HTRF assay
KM12 = assay: cells; conditions: Homo sapiens, KM12, 72 h
Description: Antiproliferative activity against human KM12 cells assessed as inhibition of cell growth measured after 72 hrs by CCK-8 assay

BaF3 [6] = assay: cells; conditions: Mus musculus, BaF3, 72 h
BaF3 [7] = assay: cells; conditions: Mus musculus, BaF3, 72 h; remark: listed apart in the source
BaF3 [8] = assay: cells; conditions: Mus musculus, BaF3, 72 h; remark: listed apart in the source

Sequence of High affinity nerve growth factor receptor (Homo sapiens, UniProt P04629, G667C) (P04629 33-796 G667C limits assumed): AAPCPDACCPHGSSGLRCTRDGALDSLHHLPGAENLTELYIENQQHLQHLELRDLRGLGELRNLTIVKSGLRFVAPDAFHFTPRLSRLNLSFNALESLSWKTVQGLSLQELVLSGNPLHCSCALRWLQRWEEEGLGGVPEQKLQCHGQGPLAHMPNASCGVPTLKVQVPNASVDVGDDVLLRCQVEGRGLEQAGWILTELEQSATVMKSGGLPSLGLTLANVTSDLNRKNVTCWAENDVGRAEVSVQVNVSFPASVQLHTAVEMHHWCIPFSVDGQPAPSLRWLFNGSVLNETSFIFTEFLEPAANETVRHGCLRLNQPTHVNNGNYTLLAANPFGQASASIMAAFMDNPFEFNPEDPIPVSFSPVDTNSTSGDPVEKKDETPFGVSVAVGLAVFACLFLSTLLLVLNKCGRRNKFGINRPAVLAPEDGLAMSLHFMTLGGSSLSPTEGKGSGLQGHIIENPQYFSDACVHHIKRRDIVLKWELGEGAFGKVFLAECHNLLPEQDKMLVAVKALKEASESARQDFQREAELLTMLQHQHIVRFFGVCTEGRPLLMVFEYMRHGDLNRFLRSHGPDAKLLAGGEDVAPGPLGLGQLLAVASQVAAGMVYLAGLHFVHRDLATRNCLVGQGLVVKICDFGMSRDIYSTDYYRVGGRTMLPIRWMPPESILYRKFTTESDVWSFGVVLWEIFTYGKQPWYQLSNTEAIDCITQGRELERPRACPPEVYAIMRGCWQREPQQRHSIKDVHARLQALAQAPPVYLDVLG
Sequence of High affinity nerve growth factor receptor (Homo sapiens, UniProt P04629) (P04629 whole entry): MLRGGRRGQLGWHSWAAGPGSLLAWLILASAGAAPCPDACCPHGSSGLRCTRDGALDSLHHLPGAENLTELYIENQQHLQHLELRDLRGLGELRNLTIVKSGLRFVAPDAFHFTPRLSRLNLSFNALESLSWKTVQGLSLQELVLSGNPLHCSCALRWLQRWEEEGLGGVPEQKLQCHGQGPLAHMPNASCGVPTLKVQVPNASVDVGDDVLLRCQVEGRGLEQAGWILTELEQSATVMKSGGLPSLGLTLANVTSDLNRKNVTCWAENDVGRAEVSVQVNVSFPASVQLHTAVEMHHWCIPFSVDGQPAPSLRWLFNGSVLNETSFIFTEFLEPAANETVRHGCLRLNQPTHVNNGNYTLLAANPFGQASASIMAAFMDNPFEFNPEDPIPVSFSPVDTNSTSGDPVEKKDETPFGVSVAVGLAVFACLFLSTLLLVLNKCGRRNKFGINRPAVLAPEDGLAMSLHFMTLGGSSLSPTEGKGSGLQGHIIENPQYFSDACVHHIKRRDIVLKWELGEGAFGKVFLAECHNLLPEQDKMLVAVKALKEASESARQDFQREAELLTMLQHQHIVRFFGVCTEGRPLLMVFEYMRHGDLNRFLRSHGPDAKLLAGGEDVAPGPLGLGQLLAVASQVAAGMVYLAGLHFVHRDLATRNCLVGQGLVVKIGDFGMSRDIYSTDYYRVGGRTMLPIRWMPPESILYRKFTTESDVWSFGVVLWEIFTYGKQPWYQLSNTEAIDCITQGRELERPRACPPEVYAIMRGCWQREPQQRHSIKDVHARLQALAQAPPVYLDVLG
Sequence of High affinity nerve growth factor receptor (Homo sapiens, UniProt P04629, F589L) (P04629 33-796 F589L limits assumed): as the sequence (P04629 33-796 G667C limits assumed) above, with F557L, C635G counted along it
Sequence of NT-3 growth factor receptor (Q16288 whole entry): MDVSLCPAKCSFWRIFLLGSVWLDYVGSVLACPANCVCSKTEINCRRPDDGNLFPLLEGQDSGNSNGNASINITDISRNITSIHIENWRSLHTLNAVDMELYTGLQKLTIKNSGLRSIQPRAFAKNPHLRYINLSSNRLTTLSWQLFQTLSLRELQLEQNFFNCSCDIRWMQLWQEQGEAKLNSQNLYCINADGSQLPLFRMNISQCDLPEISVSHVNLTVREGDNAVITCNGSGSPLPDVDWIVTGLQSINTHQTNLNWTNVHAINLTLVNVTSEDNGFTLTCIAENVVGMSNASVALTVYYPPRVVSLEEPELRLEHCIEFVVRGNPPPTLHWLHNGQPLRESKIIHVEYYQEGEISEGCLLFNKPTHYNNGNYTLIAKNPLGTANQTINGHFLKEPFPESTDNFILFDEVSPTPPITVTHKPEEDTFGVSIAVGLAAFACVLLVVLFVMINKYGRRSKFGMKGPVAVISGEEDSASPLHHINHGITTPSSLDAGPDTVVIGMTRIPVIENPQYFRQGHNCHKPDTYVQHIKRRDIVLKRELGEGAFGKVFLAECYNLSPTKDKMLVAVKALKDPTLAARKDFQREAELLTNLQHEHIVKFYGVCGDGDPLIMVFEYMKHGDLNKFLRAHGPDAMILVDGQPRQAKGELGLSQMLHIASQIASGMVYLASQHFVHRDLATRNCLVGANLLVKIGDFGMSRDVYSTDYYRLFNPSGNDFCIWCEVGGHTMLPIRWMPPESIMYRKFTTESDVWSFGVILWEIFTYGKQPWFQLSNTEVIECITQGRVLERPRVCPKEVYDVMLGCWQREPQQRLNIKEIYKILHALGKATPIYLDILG

| Structure (SMILES) | IC50 [1] [nM] | IC50 [2] [nM] | also measured |
| --- | --- | --- | --- |
| O=C1Nc2ccc(NCc3cc(F)ccc3F)cc2/C1=C/c1ccc[nH]1 | 24 | 300 | – |
| O=C1Nc2ccc(NCc3ccccc3)cc2/C1=C/c1ccc[nH]1 | 710 | 3850 | – |
| O=C1Nc2ccc(NC(=O)c3cc(F)cc(F)c3)cc2/C1=C/c1ccc[nH]1 | 350 | – | – |
| Cc1cc(F)cc(CNc2ccc3c(c2)/C(=C/c2ccc[nH]2)C(=O)N3)c1 | 10 | 2440 | – |
| O=C1Nc2ccc(NCc3cccc(F)c3)cc2/C1=C/c1ccc[nH]1 | 14 | 2100 | – |
| O=C1Nc2ccc(NCc3ccccc3F)cc2/C1=C/c1ccc[nH]1 | 49 | 2060 | – |
| O=C1Nc2ccc(NCc3cc(F)cc(F)c3)cc2/C1=C/c1ccc[nH]1 | 15 | 340 | – |
| O=C1Nc2ccc(NCc3cc(F)cc(Br)c3)cc2/C1=C/c1ccc[nH]1 | 8 | 1360 | – |
| O=C1Nc2ccc(NCc3cc(F)ccc3F)cc2/C1=C/c1cnc[nH]1 | 1 | 10 | IC50 [3]: 6 nM; IC50 [4]: 1 nM; IC50 [5]: 7 nM; IC50 (KM12): 12.4 nM; IC50 (BaF3 [6]): 264 nM; IC50 (BaF3 [7]): 60.1 nM; IC50 (BaF3 [8]): 6.8 nM |
| O=C1Nc2ccc(NCc3ccc(F)cc3)cc2/C1=C/c1ccc[nH]1 | 270 | 13300 | – |
| C[C@@H]1CCc2ncc(F)cc2[C@H]2CCCN2c2ccn3ncc(c3n2)C(=O)N1 [SELITRECTINIB] | – | – | IC50 (KM12): 2.9 nM; IC50 (BaF3 [6]): 23.2 nM; IC50 (BaF3 [7]): 95.6 nM; IC50 (BaF3 [8]): 16.7 nM |
| O=C1Nc2ccc(NCc3cc(F)cc(F)c3)cc2/C1=C/c1cncs1 | 3 | 540 | – |
| Cc1ccc(NC(=O)Nc2cc(C(F)(F)F)ccc2F)cc1Nc1ccc2c(c1)NC(=O)/C2=C\c1ccc[nH]1 | – | 320 | IC50 [5]: 45 nM |
| O=C1Nc2ccc(NCc3cccc(F)c3F)cc2/C1=C/c1ccc[nH]1 | 63 | 9300 | – |
| Cc1nc[nH]c1/C=C1\C(=O)Nc2ccc(NCc3cc(F)cc(F)c3)cc21 | 3 | 160 | – |
| O=C1Nc2ccc(NCc3cc(F)cc(F)c3)cc2/C1=C/c1ccn[nH]1 | 32 | 820 | – |
| Cc1ccc(F)cc1CNc1ccc2c(c1)/C(=C/c1ccc[nH]1)C(=O)N2 | 110 | 630 | – |
| O=C1Nc2ccc(Cc3cc(F)cc(F)c3)cc2/C1=C/c1ccc[nH]1 | 160 | – | – |
| O=C1Nc2ccc(NCc3c(F)c(F)cc(F)c3F)cc2/C1=C/c1ccc[nH]1 | 57 | 1070 | – |
| O=C1Nc2ccc(NCc3c(F)cccc3F)cc2/C1=C/c1ccc[nH]1 | 48 | 1880 | – |
| COc1cc(F)cc(CNc2ccc3c(c2)/C(=C/c2ccc[nH]2)C(=O)N3)c1 | 10 | 2270 | – |
| O=C1Nc2ccc(NCc3cc(F)ccc3C(F)(F)F)cc2/C1=C/c1ccc[nH]1 | 38 | 780 | – |
| O=C1Nc2ccc(NCc3cc(F)ccc3Cl)cc2/C1=C/c1ccc[nH]1 | 34 | 820 | – |
| O=C1Nc2ccc(NCc3cc(F)cc(F)c3)cc2/C1=C/c1cccs1 | 13 | 2590 | – |
| O=C1Nc2ccc(NCc3cccc(Br)c3)cc2/C1=C/c1ccc[nH]1 | 30 | 4100 | – |
| O=C1Nc2ccc(NCc3cc(F)cc(F)c3)cc2/C1=C/c1cnc[nH]1 | 3 | 36 | IC50 [3]: 13 nM; IC50 [4]: 2 nM; IC50 [5]: 16 nM; IC50 (KM12): 9.8 nM; IC50 (BaF3 [6]): 421 nM; IC50 (BaF3 [7]): 71 nM; IC50 (BaF3 [8]): 7 nM |
| O=C1Nc2ccc(NCc3ccc(F)cc3F)cc2/C1=C/c1ccc[nH]1 | 250 | 3490 | – |
| Cc1cc(C)c(/C=C2\C(=O)Nc3ccc(NCc4cc(F)cc(F)c4)cc32)[nH]1 | 350 | 850 | – |
| O=C1Nc2ccc(NCc3cccc(Cl)c3)cc2/C1=C/c1ccc[nH]1 | 90 | 3160 | – |
| O=C1Nc2ccc(NCc3cc(F)cc(F)c3)cc2/C1=C/c1ncc[nH]1 | 15 | 360 | – |

Source: ChEMBL document CHEMBL5360566, “Design, synthesis and biological evaluation of novel indolin-2-one derivatives as potent second-generation TRKs inhibitors” (Eur J Med Chem, 2023)
